Data published in patent US20220351806A1, “Biomarker Panels for Guiding Dysregulated Host Response Therapy” (Endpoint Health Inc., priority 2019, published 2022).

Test system: burn-induced SIRS patients
Assay: Burn-Induced SIRS trial survival analysis, hydrocortisone vs placebo, by patient subtype classifier
Type: in vivo, human
Design: lower mortality in the hydrocortisone group when compared to the placebo group / Mortality reduction / Mortality rate: concentration or dose not given beside the values
Conditions: for Alive / Dead / Mortality rate / Survival rate: Hydro arm; for Alive / Dead / Mortality rate / Survival rate / Mortality Reduction Group / Mortality reduction: day 28; for Mortality Reduction Group: Hydro vs Placebo
Source text: The test expression data from each trial were normalized by the platform normalization matrix described above^13 so that the test data were more consistent with the training data. The classifiers (e.g., the Full Model, the SS Model, the S Model, and the P Model) were then applied to the normalized data such that the patients were classified into A, B, and C subtypes. […] Therefore, each sample in the target samples was normalized independently with the normalization matrix of the sample array platform.
Survival and mortality rates were calculated at day 28 because survival and mortality labels at other time points were not available. […] Binomial and Chi-squared with continuity correction tests were used to test for the significance of these differences.
The chi-squared p-value was calculated with continuity correction when computed for 2-by-2 tables.

[1] = Full Model, Total (all subtypes)

C[C@]12CCC(=O)C=C1CC[C@@H]1[C@@H]2[C@@H](O)C[C@@]2(C)[C@H]1CC[C@]2(O)C(=O)CO [Hydro, hydrocortisone]
Alive [1]: 9
Dead [1]: 6
Mortality rate [1]: 40.0%
Survival rate [1]: 60.0%
Mortality Reduction Group [1]: Placebo
Mortality reduction (Full Model, Total (all subtypes), reduction group Placebo): 66.7%
Alive (Full Model, subtype A): 2
Dead (Full Model, subtype A): 1
Survival rate (Full Model, subtype A): 66.7%
Mortality Reduction Group (Full Model, subtype A): Placebo
Mortality reduction (Full Model, subtype A, reduction group Placebo): 100.0%
Alive (Full Model, subtype B): 6
Dead (Full Model, subtype B): 1
Mortality rate (Full Model, subtype B): 14.3%
Survival rate (Full Model, subtype B): 85.7%
Mortality Reduction Group (Full Model, subtype B): Hydro
Mortality reduction (Full Model, subtype B, reduction group Hydro): 64.3%
Alive (Full Model, subtype C): 1
Dead (Full Model, subtype C): 4
Mortality rate (Full Model, subtype C): 80.0%
Survival rate (Full Model, subtype C): 20.0%
Mortality Reduction Group (Full Model, subtype C): Placebo
Mortality reduction (Full Model, subtype C, reduction group Placebo): 100.0%
Alive (Full Model, subtypes CA): 3
Dead (Full Model, subtypes CA): 5
Mortality rate (Full Model, subtypes CA): 62.5%
Survival rate (Full Model, subtypes CA): 37.5%
Mortality Reduction Group (Full Model, subtypes CA): Placebo
Mortality reduction (Full Model, subtypes CA, reduction group Placebo): 100.0%
Alive (P Model, Total (all subtypes)): 9
Dead (P Model, Total (all subtypes)): 6
Mortality rate (P Model, Total (all subtypes)): 40.0%
Survival rate (P Model, Total (all subtypes)): 60.0%
Mortality Reduction Group (P Model, Total (all subtypes)): Placebo
Mortality reduction (P Model, Total (all subtypes), reduction group Placebo): 66.7%
Alive (P Model, subtype A): 4
Dead (P Model, subtype A): 1
Mortality rate (P Model, subtype A): 20.0%
Survival rate (P Model, subtype A): 80.0%
Mortality Reduction Group (P Model, subtype A): Placebo
Mortality reduction (P Model, subtype A, reduction group Placebo): 100.0%
Alive (P Model, subtype B): 5
Dead (P Model, subtype B): 1
Survival rate (P Model, subtype B): 83.3%
Mortality Reduction Group (P Model, subtype B): Hydro
Mortality reduction (P Model, subtype B, reduction group Hydro): 50.0%
Alive (P Model, subtype C): 0
Dead (P Model, subtype C): 4
Mortality rate (P Model, subtype C): 100.0%
Survival rate (P Model, subtype C): 0.0%
Mortality Reduction Group (P Model, subtype C): Placebo
Mortality reduction (P Model, subtype C, reduction group Placebo): 100.0%
Alive (P Model, subtypes CA): 4
Dead (P Model, subtypes CA): 5
Mortality rate (P Model, subtypes CA): 55.6%
Survival rate (P Model, subtypes CA): 44.4%
Mortality Reduction Group (P Model, subtypes CA): Placebo
Mortality reduction (P Model, subtypes CA, reduction group Placebo): 100.0%
Alive (S Model, Total (all subtypes)): 9
Dead (S Model, Total (all subtypes)): 6
Mortality rate (S Model, Total (all subtypes)): 40.0%
Survival rate (S Model, Total (all subtypes)): 60.0%
Mortality Reduction Group (S Model, Total (all subtypes)): Placebo
Mortality reduction (S Model, Total (all subtypes), reduction group Placebo): 66.7%
Alive (S Model, subtype A): 3
Dead (S Model, subtype A): 2
Mortality rate (S Model, subtype A): 40.0%
Survival rate (S Model, subtype A): 60.0%
Mortality Reduction Group (S Model, subtype A): Placebo
Mortality reduction (S Model, subtype A, reduction group Placebo): 58.3%
Alive (S Model, subtype B): 6
Dead (S Model, subtype B): 1
Mortality rate (S Model, subtype B): 14.3%
Survival rate (S Model, subtype B): 85.7%
Mortality Reduction Group (S Model, subtype B): Hydro
Mortality reduction (S Model, subtype B, reduction group Hydro): 28.6%
Alive (S Model, subtype C): 0
Dead (S Model, subtype C): 3
Mortality rate (S Model, subtype C): 100.0%
Survival rate (S Model, subtype C): 0.0%
Mortality Reduction Group (S Model, subtype C): Placebo
Mortality reduction (S Model, subtype C, reduction group Placebo): 100.0%
Alive (S Model, subtypes CA): 3
Dead (S Model, subtypes CA): 5
Mortality rate (S Model, subtypes CA): 62.5%
Survival rate (S Model, subtypes CA): 37.5%
Mortality Reduction Group (S Model, subtypes CA): Placebo
Mortality reduction (S Model, subtypes CA, reduction group Placebo): 84.0%
lower mortality in the placebo group when compared to the hydrocortisone therapy group (SIRS patients, 28-day, C subtype, Full Model): 100%
lower mortality in the placebo group when compared to the hydrocortisone therapy group (SIRS patients, 28-day, C subtype, P Model): 100%
lower mortality in the placebo group when compared to the hydrocortisone therapy group (SIRS patients, 28-day, C subtype, S Model): 100%
lower mortality in the placebo group when compared to the hydrocortisone therapy group (SIRS patients, 28-day, C subtype, SS Model): 65%
lower mortality in the placebo group when compared to the hydrocortisone therapy group (SIRS patients, 28-day, subtype A, Full, S, and P Models): 100%
lower mortality in the hydrocortisone group when compared to the placebo group (SIRS patients, 28-day, subtype B, S Model): 28.6%
Alive (SS Model, Total (all subtypes)): 9
Dead (SS Model, Total (all subtypes)): 6
Mortality rate (SS Model, Total (all subtypes)): 40.0%
Survival rate (SS Model, Total (all subtypes)): 60.0%
Mortality Reduction Group (SS Model, Total (all subtypes)): Placebo
Mortality reduction (SS Model, Total (all subtypes), reduction group Placebo): 66.7%
Alive (SS Model, subtype A): 4
Dead (SS Model, subtype A): 2
Survival rate (SS Model, subtype A): 66.7%
Mortality Reduction Group (SS Model, subtype A): Placebo
Mortality reduction (SS Model, subtype A, reduction group Placebo): 40.0%
Alive (SS Model, subtype B): 2
Dead (SS Model, subtype B): 0
Mortality rate (SS Model, subtype B): 0.0%
Survival rate (SS Model, subtype B): 100.0%
Mortality Reduction Group (SS Model, subtype B): Placebo
Alive (SS Model, subtype C): 3
Dead (SS Model, subtype C): 4
Mortality rate (SS Model, subtype C): 57.1%
Survival rate (SS Model, subtype C): 42.9%
Mortality Reduction Group (SS Model, subtype C): Placebo
Mortality reduction (SS Model, subtype C, reduction group Placebo): 65.0%
Alive (SS Model, subtypes CA): 7
Dead (SS Model, subtypes CA): 6
Mortality rate (SS Model, subtypes CA): 46.2%
Survival rate (SS Model, subtypes CA): 53.8%
Mortality Reduction Group (SS Model, subtypes CA): Placebo
Mortality reduction (SS Model, subtypes CA, reduction group Placebo): 56.7%
